Test results reported in ChEMBL document CHEMBL1150583, “New isoflavone and triterpene glycosides from soybeans” (2002).
Values after ≈ are worked out from the molar mass of the structure shown.

What was measured:
Type in all cases: functional
[1] = Cytotoxicity against human LNCaP-FGC cells after 6 days by MTT assay; conditions: LNCaP-Clone-FGC, 144 h, read-out: ED50 (the source's name)
[2] = Cytotoxicity against human Hs 742.T cells after 6 days by MTT assay; conditions: 144 h, read-out: ED50 (the source's name)
[3] = Cytotoxicity against human Hs 746T cells after 6 days by MTT assay; conditions: Hs746T, 144 h, read-out: ED50 (the source's name)
[4] = test system: DU-145; assay: Cytotoxicity against human DU145 cells after 6 days by MTT assay; conditions: DU-145, 144 h, read-out: ED50 (the source's name)
[5] = Cytotoxicity against human Hs 578T cells after 6 days by MTT assay; conditions: 144 h, read-out: ED50 (the source's name)
[6] = Cytotoxicity against human Hs 740.T cells after 6 days by MTT assay; conditions: 144 h, read-out: ED50 (the source's name)

Row | SMILES | EC50 [1] [µg/mL] | EC50 [2] [µg/mL] | EC50 [3] [µg/mL] | EC50 [4] [µg/mL] | EC50 [5] [µg/mL] | EC50 [6] [µg/mL]
1 | O=c1c(-c2ccc(O)cc2)coc2cc(O)cc(O)c12 [GENISTEIN] | 25.4 (≈ 94.2 µM) | 14.9 (≈ 55.1 µM) | 5.82 (≈ 21.5 µM) | 2.39 (≈ 8.84 µM) | 3.5 (≈ 13 µM) | 4.38 (≈ 16.2 µM)
2 | COc1ccc(-c2coc3cc(O[C@@H]4O[C@H](COC(C)=O)[C@@H](O)[C@H](O)[C@H]4OC(C)=O)ccc3c2=O)cc1 | 22.1 (≈ 43 µM) | 25.5 (≈ 49.6 µM) | 8.89 (≈ 17.3 µM) | 4.18 (≈ 8.12 µM) | 5.44 (≈ 10.6 µM) | 7.61 (≈ 14.8 µM)
3 | C[C@@H]1O[C@@H](O[C@H]2[C@H](O[C@H]3[C@H](O[C@H]4CC[C@@]5(C)[C@@H](CC[C@]6(C)[C@@H]5CC=C5[C@@H]7CC(C)(C)C[C@@H](O[C@@H]8O[C@H](CO)[C@@H](O)[C@H](O)[C@H]8O[C@@H]8O[C@@H](C)[C@H](O)[C@@H](O)[C@H]8O)[C@]7(C)CC[C@]56C)[C@]4(C)CO)O[C@H](C(=O)O)[C@@H](O)[C@@H]3O)O[C@H](CO)[C@H](O)[C@@H]2O)[C@H](O)[C@H](O)[C@H]1O | 24.1 (≈ 19.3 µM) | 14.6 (≈ 11.7 µM) | 3.94 (≈ 3.15 µM) | 3.25 (≈ 2.6 µM) | 2.12 (≈ 1.69 µM) | 4.1 (≈ 3.28 µM)
4 | CC1(C)C[C@@H](O)[C@]2(C)CC[C@]3(C)C(=CC[C@@H]4[C@@]5(C)CC[C@H](O[C@@H]6O[C@H](C(=O)O)[C@@H](O)[C@H](O)[C@H]6O[C@@H]6O[C@H](CO)[C@H](O)[C@H](O)[C@H]6O[C@@H]6O[C@H](CO)[C@@H](O)[C@H](O)[C@H]6O)[C@@](C)(CO)[C@@H]5CC[C@]43C)[C@@H]2C1 [3-O-[BETA-DGLUCOPYRANOSYL-(1->2)-BETA-D-GALACTOPYRANOSYL(1->2)-BETA-DGLUCURONOPYRANOSYL]SOYASAPOGENOL B] | 40.7 (≈ 42.4 µM) | 31.6 (≈ 32.9 µM) | 7.36 (≈ 7.67 µM) | 5.75 (≈ 5.99 µM) | 9.87 (≈ 10.3 µM) | 8.97 (≈ 9.35 µM)
5 | CC1(C)C[C@@H](O)[C@]2(C)CC[C@]3(C)C(=CC[C@@H]4[C@@]5(C)CC[C@H](O[C@@H]6O[C@H](C(=O)O)[C@@H](O)[C@H](O)[C@H]6O)[C@@](C)(CO)[C@@H]5CC[C@]43C)[C@@H]2C1 [3-O-[BETA-D-GLUCURONOPYRANOSYL]SOYASAPOGENOL B] | 37.3 (≈ 58.7 µM) | 28.7 (≈ 45.2 µM) | 9.59 (≈ 15.1 µM) | 9.13 (≈ 14.4 µM) | 8.77 (≈ 13.8 µM) | 9.61 (≈ 15.1 µM)
6 | O=C1c2c(O)cc(O[C@@H]3O[C@H](CO)[C@@H](O)[C@H](O)[C@H]3O)cc2OCC1c1ccc(O)cc1 (stereo partly drawn) [DIHYDROGENISTIN] | 41.6 (≈ 95.7 µM) | 30.8 (≈ 70.9 µM) | 12.2 (≈ 28.2 µM) | 10.2 (≈ 23.6 µM) | 15.4 (≈ 35.4 µM) | 15.1 (≈ 34.8 µM)
7 | O=C1c2ccc(O[C@@H]3O[C@H](CO)[C@@H](O)[C@H](O)[C@H]3O)cc2OCC1c1ccc(O)cc1 (stereo partly drawn) [DIHYDRODAIDZIN] | 32.5 (≈ 77.6 µM) | 33.6 (≈ 80.2 µM) | 14.9 (≈ 35.7 µM) | 9.16 (≈ 21.9 µM) | 28.2 (≈ 67.5 µM) | 17.4 (≈ 41.5 µM)
8 | C[C@@H]1O[C@@H](O[C@H]2[C@H](O[C@@H]3CC(C)(C)C[C@H]4C5=CC[C@@H]6[C@@]7(C)CC[C@H](O[C@@H]8O[C@H](C(=O)O)[C@@H](O)[C@H](O)[C@H]8O[C@@H]8O[C@H](CO)[C@H](O)[C@H](O)[C@H]8O[C@@H]8O[C@@H](C)[C@H](O)[C@@H](O)[C@H]8O)[C@@](C)(CO)[C@@H]7CC[C@@]6(C)[C@]5(C)CC[C@@]34C)OC[C@H](O)[C@@H]2O)[C@H](O)[C@H](O)[C@H]1O | 27.5 (≈ 22.5 µM) | 17.5 (≈ 14.3 µM) | 2.47 (≈ 2.02 µM) | 3.12 (≈ 2.55 µM) | 2.39 (≈ 1.96 µM) | 3.53 (≈ 2.89 µM)
